Assay results as given in patent US20100249419A1, “UTILIZATION OF NOVEL COMPOUNDS WITH AMYLOID AFFINITY AND METHOD OF PRODUCING THE SAME” (NIHON MEDI-PHYSICS CO., LTD., priority 2007, published 2010).

Experiments:
[1] = test system: Salmonella typhimurium TA98; assay: Reverse mutation test (Ames test), TA98; type: cell-based
Method: (§1) In order to examine gene mutagenicity of Compounds 3, 5 and 8, reverse mutation test using Salmonella typhimurium TA98 and TA100 (hereinafter referred to as Ames test) was conducted.
(§2) The test was conducted without addition of S9mix and with addition of S9mix. Dimethylsulfoxide (hereinafter referred to as DMSO) was used as a negative control. A positive control was 2-(2-furyl)-3-(5-nitro-2-furyl)acrylamide (hereinafter referred to as AF-2) in case S9mix was not added, and 2-aminoanthracene (hereinafter referred to as 2-AA) in case S9mix was added.
(§3) As a sample solution to be added to a test plate, each compound was dissolved in DMSO to prepare a solution at a concentration of 50 mg/mL, and further, each solution was diluted with DMSO to prepare a solution with 7 dosage (geometric ratio 3). As a sample solution for preparing a sample of positive control, when TA98 was used as a test strain without addition of S9mix, a solution of AF-2 (compound concentration: 1 μg/mL) in DMSO was prepared; when TA100 was used as a test strain without addition of S9mix, a solution of AF-2 (compound concentration: 0.1 μg/mL) in DMSO was prepared; when TA98 was used as a test strain with addition of S9mix, a solution of 2-AA (compound concentration: 5 μg/mL) in DMSO was prepared; and when TA100 was used as a test strain with addition of S9mix, a solution of 2-AA (compound concentration: 10 μg/mL) in DMSO was prepared.
(§4) After each sample solution to be examined and a test strain (TA98 or TA100) were mixed together so as to make the addition amount of each sample to be 0.1 mL/plate, the mixture was multilayered using soft agar on a medium of a test plate, and then incubated at 37° C. for 48 hours. Separately, after each sample solution to be examined, S9mix and a test strain were mixed together so as to make the addition amount of each sample to be 0.1 mL/plate, the mixture was multilayered using soft agar on a medium of a test plate, and then incubated at 37° C. for 48 hours. On the other hand, only DMSO was used as a sample solution to perform the same procedure as above for the negative control. […]

[2] = test system: Salmonella typhimurium TA100; assay: Reverse mutation test (Ames test), TA100; type: cell-based
Method: as §1, §2, §3, §4

[3] = TA98, without addition of S9mix
[4] = TA100, without addition of S9mix

Measured: Mutagenicity

CCC[CH2][Sn]([CH2]CCC)([CH2]CCC)[c]1ccc2nc(-c3ccc(OCCO)cc3)cn2c1 [Compound 9, 6-tributylstannyl-2-[4′-(2″-hydroxyethoxy)phenyl]imidazo[1,2-a]pyridine]
Negative: [1]; TA98, with addition of S9mix | [1]; [3] | [2]; TA100, with addition of S9mix | [2]; [4]

OCCOc1cccc(-c2cn3cc(I)ccc3n2)c1 [Compound 5, 2-[3′-(2″-hydroxyethoxy)phenyl]-6-iodoimidazo[1,2-a]pyridine]
Negative: [1]; TA98, with addition of S9mix | [1]; [3] | [2]; TA100, with addition of S9mix | [2]; [4]

CCOc1ccc(-c2cn3cc(I)ccc3n2)cc1 [Compound 8, 2-(4′-ethoxyphenyl)-6-iodoimidazo[1,2-a]pyridine]
Negative: [1]; TA98, with addition of S9mix | [1]; [3] | [2]; TA100, with addition of S9mix | [2]; [4]
